In publication PMC9891081 (Cell, 2022):

How the values were obtained:
[1] = target: rabbit Cav1.1 (rCav1.1) α1 subunit (Oryctolagus cuniculus, UniProt P07293); assay: cryo-EM structure; type: binding
human Cav1.2 = human Cav1.2 (Homo sapiens, UniProt Q13936); assay: calcium influx assay in HEK293 cells; type: cell-based
rabbit Cav1.1 α1 subunit = rabbit Cav1.1 α1 subunit (rabbit, UniProt P07293 1-1873); assay: cryo-EM structure
Chain of rabbit Cav1.1 α1 subunit (P07293 whole entry): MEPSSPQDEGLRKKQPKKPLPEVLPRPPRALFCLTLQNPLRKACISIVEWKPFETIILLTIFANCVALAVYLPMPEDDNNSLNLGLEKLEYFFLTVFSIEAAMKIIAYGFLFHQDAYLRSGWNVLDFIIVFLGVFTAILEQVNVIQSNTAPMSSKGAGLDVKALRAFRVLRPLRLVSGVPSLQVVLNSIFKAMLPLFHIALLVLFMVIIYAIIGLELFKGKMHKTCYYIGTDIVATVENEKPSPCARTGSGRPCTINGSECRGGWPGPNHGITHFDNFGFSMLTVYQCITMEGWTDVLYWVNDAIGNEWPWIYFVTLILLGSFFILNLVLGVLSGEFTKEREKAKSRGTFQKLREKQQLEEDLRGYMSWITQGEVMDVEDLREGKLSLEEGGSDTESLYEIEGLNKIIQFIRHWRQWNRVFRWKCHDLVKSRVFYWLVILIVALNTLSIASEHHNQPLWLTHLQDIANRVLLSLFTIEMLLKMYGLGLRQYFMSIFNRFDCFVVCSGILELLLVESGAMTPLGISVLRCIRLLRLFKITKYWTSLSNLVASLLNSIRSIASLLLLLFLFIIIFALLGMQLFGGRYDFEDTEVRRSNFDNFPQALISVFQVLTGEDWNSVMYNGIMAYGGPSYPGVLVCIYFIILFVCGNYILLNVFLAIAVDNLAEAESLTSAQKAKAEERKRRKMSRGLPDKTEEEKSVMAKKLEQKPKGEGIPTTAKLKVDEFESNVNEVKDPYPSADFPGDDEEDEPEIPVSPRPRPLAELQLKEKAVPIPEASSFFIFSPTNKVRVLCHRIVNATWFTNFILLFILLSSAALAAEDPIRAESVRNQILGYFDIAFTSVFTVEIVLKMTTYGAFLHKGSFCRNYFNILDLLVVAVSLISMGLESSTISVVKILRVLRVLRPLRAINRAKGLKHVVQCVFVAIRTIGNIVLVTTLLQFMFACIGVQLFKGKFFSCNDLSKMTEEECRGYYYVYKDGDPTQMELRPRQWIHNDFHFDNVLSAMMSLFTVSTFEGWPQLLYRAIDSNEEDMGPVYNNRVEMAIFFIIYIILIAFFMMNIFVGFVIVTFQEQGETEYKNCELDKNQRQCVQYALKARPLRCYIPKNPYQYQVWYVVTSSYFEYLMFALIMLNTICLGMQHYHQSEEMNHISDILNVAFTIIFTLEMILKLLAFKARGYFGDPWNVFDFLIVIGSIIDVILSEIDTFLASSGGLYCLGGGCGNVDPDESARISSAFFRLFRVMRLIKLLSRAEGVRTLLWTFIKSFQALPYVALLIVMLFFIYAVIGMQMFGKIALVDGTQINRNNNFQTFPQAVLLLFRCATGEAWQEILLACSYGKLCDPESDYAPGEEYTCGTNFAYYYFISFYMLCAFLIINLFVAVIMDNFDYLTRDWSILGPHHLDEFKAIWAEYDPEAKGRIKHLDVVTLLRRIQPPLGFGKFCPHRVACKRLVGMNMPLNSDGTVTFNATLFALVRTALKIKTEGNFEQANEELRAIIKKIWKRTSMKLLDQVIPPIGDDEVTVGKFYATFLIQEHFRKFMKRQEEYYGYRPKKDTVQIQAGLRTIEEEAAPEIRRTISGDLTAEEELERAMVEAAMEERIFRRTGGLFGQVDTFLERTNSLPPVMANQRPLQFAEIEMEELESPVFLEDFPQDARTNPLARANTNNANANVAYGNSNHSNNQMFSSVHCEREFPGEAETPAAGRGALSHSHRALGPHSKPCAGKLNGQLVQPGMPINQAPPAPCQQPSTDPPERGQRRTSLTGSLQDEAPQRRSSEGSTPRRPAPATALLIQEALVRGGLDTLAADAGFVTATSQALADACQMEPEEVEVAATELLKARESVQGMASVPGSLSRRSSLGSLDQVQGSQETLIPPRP

Chain of rabbit Cav1.1 (rCav1.1) α1 subunit (P07293 whole entry, one chain of several): as the sequence (P07293 whole entry) above
Chain of rabbit Cav1.1 (rCav1.1) α1 subunit (P13806 27-960 partner, one chain of several): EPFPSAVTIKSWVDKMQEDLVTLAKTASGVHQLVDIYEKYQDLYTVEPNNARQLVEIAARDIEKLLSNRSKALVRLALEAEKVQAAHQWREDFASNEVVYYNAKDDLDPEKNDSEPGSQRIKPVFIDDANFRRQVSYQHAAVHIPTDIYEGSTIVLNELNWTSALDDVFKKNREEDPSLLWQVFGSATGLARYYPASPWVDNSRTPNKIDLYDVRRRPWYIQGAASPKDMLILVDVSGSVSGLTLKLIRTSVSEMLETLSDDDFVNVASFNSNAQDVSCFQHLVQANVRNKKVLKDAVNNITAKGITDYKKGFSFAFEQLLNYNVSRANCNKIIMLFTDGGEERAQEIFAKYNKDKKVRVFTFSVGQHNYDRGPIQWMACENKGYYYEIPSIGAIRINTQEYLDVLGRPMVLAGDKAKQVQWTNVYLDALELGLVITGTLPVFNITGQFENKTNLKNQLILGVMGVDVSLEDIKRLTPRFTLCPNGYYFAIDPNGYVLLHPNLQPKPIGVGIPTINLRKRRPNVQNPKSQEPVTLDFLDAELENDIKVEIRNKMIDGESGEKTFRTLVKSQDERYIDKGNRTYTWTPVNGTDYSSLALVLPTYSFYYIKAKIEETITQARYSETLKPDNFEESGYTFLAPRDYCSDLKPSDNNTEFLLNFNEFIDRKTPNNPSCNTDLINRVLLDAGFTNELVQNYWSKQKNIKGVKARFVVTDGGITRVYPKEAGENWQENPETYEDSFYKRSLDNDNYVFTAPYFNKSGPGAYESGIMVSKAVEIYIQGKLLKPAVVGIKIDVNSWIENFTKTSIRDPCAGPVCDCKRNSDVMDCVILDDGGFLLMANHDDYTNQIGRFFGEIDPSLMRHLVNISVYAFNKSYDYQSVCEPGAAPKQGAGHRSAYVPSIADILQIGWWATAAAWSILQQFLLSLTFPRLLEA
Chain of rabbit Cav1.1 (rCav1.1) α1 subunit (P13806 961-1106 partner, one chain of several): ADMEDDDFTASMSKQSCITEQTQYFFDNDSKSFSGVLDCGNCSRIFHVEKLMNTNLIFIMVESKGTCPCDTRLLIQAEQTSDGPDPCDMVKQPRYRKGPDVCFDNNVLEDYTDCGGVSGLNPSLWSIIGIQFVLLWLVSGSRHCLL

CCCCc1oc2ccccc2c1C(=O)c1cc(I)c(OCCN(CC)CC)c(I)c1 [AMIO, amiodarone]
cryo-EM structure (2.8 Å) [1]: AMIO occupies the same site as for DHP compounds, i.e., the III-IV fenestration enclosed by S5III, S6III, and S6IV

C#C[C@]1(C)[C@@H](O)[C@@H](COP(=O)(N[C@@H](C)C(=O)OC(C)C)Oc2ccccc2)O[C@H]1n1ccc(=O)[nH]c1=O (stereo partly drawn) [MNI-1]
IC50 (human Cav1.2): > 100 µM

B1: rabbit γ1 subunit (natural protein, UniProt P19518 1-222, looked up)
chain: MSPTEAPKVRVTLFCILVGIVLAMTAVVSDHWAVLSPHMENHNTTCEAAHFGLWRICTKRIALGEDRSCGPITLPGEKNCSYFRHFNPGESSEIFEFTTQKEYSISAAAISVFSLGFLIMGTICALMAFRKKRDYLLRPASMFYVFAGLCLFVSLEVMRQSVKRMIDSEDTVWIEYYYSWSFACACAAFVLLFLGGISLLLFSLPRMPQNPWESCMDAEPEH
binding result (rabbit Cav1.1 α1 subunit): binds
